Assay results as given in patent US12310971B2, “Coffee bean compositions comprising paraxanthine and methods for their production” (RAREBIRD, INC., priority 2021, dated 2025).

Key:
[1] = in humans; cited from earlier work
[2] = Paraxanthine concentration in filtered aqueous stock infusion solution; assay type: physicochemical; settings: 18 grams of paraxanthine mixed in 1 liter of water at 85° C., filtered to remove undissolved paraxanthine
Protocol: In the first, infusing, step, the three batches of green coffee beans were individually infused with paraxanthine dissolved in water, the infusion solvent, to produce green solvated paraxanthine coffee beans. A stock solution of infusion solvent comprising paraxanthine was generated by mixing 18 grams of paraxanthine in 1 liter of water at 85° C.; the solution was then filtered to remove any residual, undissolved paraxanthine. The paraxanthine concentration in the stock solution was approximately 74 mM. Infusions were performed in 250-mL glass jars using 60 grams of green coffee beans and 120 grams of the stock infusion solution. The mixtures were incubated at 85° C. for 1 hour with periodic mixing. Subsequently, the green solvated paraxanthine coffee beans were separated using a colander, rinsed, and residual solvent removed from the surface of the beans. The mass of the infused beans was measured and compared to the mass of the original green coffee beans to determine the infusion solvent content. The moisture contents for batches 1, 2, and 3 were 45.1%, 46.9%, and 44.8%, respectively.

[3] = Solubility of paraxanthine in infusion solvents as a function of pH; assay type: physicochemical; settings: dependence on pH
Source text: Thus, performing the infusing step at a pH of 7 or higher can be useful to increase the paraxanthine content of the finished paraxanthine coffee. In various embodiments, the pH of the infusion mixture is greater than pH 7. In some embodiments, the pH of the infusion mixture is greater than pH 8. In some embodiments, the pH of the infusion mixture is greater than 8.5. In some embodiments, the pH of the infusion mixture is greater than 9.0. In some embodiments, the pH of the infusion mixture is greater than 9.5.

| paraxanthine concentration in the stock solution [2] | solubility of paraxanthine in the infusion solvents [3] | Structure (SMILES) | half-life [1] [h] |
| --- | --- | --- | --- |
|  |  | Cn1c(=O)c2c(ncn2C)n(C)c1=O [caffeine] | 4.1 ± 0.8 |
| approximately 74 mM | increases with increasing pH | Cn1c(=O)[nH]c2ncn(C)c2c1=O [paraxanthine] |  |
